Source: patent US5364944A, “Substituted benzoylbenzene-, biphenyl- and 2-oxazole- alkanoic acid compounds” (American Home Products Corporation, priority 1993, dated 1994)

Legend:
LTB4 = assay: Reverse passive Arthus pleurisy assay, inflammatory mediator release: LTB4; assay type: in vivo, rat (male Lewis); settings: 25 mg/kg p.o., 3 hours before challenge
[1] = test system: 5-lipoxygenase in human whole blood; assay: Inhibition of 5-lipoxygenase in human whole blood (LTB4); assay type: cell-based
In short: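 Donor whole blood was preincubated with compound (0.1% final DMSO) 10 min at 37° C, then stimulated with 30 μM A23187 for 20 min at 27° C and stopped with EGTA on ice. Plasma LTB4 quantified by RIA or ELISA as ng/10^6 neutrophils; effects given as percent change from control.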

Question: With `CC(C(=O)N(C)O)c1ccc(-c2ccc(OCc3csc(-c4ccccc4)n3)cc2)cc1` (stereo not drawn) [Example 21, N-Hydroxy-N,α-dimethyl-4'-[(2-phenylthiazol-4-yl)methoxy][1,1'-biphenyl]-4-acetamide] as the compound, how does the “% Inhibition of LTB4 Synthesis” value (LTB4) read?
Answer: The value was 8%.

Question: And the IC50 [1]?
Answer: Its IC50 is 7.8 µM.

Question: And the “% Inhibition of LTB4” value ([1]; at 25 μM)?
Answer: Its value is 85%.
